Source: US12383545B1, “Treatment of migraine” (priority 2018, dated 2025)

Columns and labels:
ALT or AST = assay: Study B: postbaseline hepatic laboratory parameters (ALT or AST, potential Hy's Law); type: in vivo, human; settings: atogepant 60 mg QD or standard of care, safety population
Source text: Cases of alanine aminotransferase/aspartate aminotransferase (ALT/AST) levels ≥3 times the upper limit of normal were reported for 2.4% of participants (n=13/531) treated with atogepant and 3.2% for standard-of-care (n=6/190). No cases of potential Hy's Law were reported. Table 24 provides postbaseline hepatic laboratory parameter values of clinical interest for the safety population.

[1] = test system: participants with episodic migraine; assay: Study B: HIT-6 total score and responder rates; type: in vivo, human; parameters: key to Change from Baseline in HIT-6 Total Score, LS Mean Δ from baseline: points on HIT-6 total score (range 36–78); negative = improvement; settings: for HIT-6 total score, LS mean change (95% confidence interval) / proportion of HIT-6 responders (≥5 points from baseline): Study B, 60 mg QD; for Change from Baseline in HIT-6 Total Score, LS Mean Δ from baseline / HIT-6 Total Score Responder Rates, % Responder: atogepant 60 mg; for Change from Baseline in HIT-6 Total Score, LS Mean Δ from baseline: mITT Population; for HIT-6 Total Score Responder Rates, % Responder: responder = ≥5 point improvement from baseline
Description: In embodiments, the present disclosure provides a method for preventing migraine (such as a method for preventing migraine in patients having fewer than fifteen migraine days per month) wherein atogepant is administered in an amount of 10 mg QD, 30 mg QD, or 60 mg QD, wherein administration of atogepant results in a reduction in a 6-item Headache Impact Test (HIT-6) disability score relative to baseline. The Headache Impact Test (HIT-6) is a well-known tool for assessing migraine intensity, and uses six questions to measure the adverse impact of headache on, for example, social functioning, role functioning, vitality, cognitive functioning, and psychological distress. Responses are based on frequency using a 5-point verbal response scale ranging from “never” to “always”. The HIT-6 total score is the sum of the responses, and ranges from 36 to 78. See Yang et al., Validation of the Headache Impact Test (HIT-6™) Across Episodic and Chronic Migraine, Cephalalgia 2011 February; 31 (3): 357-367. In embodiments, treatment with atogepant results in a greater than five (≥5) point decrease in HIT-6 disability score.
The proportion of HIT-6 responders (≥5 points from baseline) were 59.92% and 80.77% of participants in the first (week 4) and last (week 52) timepoints assessed, respectively. A responder on the HIT-6 was defined as a participant with a ≥5 point improvement from baseline.

[2] = Atogepant oral pharmacokinetics; type: in vivo; settings: administered orally
[3] = test system: participants with episodic migraine; assay: Study B: adverse events (atogepant 60 mg QD vs oral standard of care); type: in vivo, human
Description: Study B: A phase 3, multicenter, randomized, open label study was conducted to evaluate the long-term safety and tolerability of oral atogepant for the prevention of migraine in participants with episodic migraine (Study B). The study objective was to evaluate the safety and tolerability of daily treatment with atogepant 60 mg QD when administered over 52 weeks for the prevention of migraine in participants with episodic migraine.
A total of 744 participants from 106 sites were randomized in a ratio of 5:2 to the following treatment groups: atogepant 60 mg QD or oral standard of care (SOC) migraine prevention medication. The latter arm was included to contextualize safety data from the atogepant-treated participants, and efficacy measures were collected from the atogepant arm only. Efficacy measures were evaluated using the modified intent-to-treat (mITT) population and a mixed-effects model for repeated measures and included changes from baseline in monthly migraine days (MDDs), moderate/severe headache days, and acute medication use days, as well as the proportion of responders based on reductions in MMDs.
Regardless of which of these options was chosen, the participant was allowed to continue in the study. […]

C[C@@H]1[C@H](c2c(F)ccc(F)c2F)C[C@H](NC(=O)c2cnc3c(c2)C[C@@]2(C3)C(=O)Nc3ncccc32)C(=O)N1CC(F)(F)F [atogepant]
Potential Hy's Law (ALT or AST ≥ 3 × ULN and Bilirubin Total ≥ 2 × ULN and ALP < 2 × ULN), n/N1 (%) (ALT or AST): (0.0) %
ALT or AST ≥1 × ULN, n/N1 (%) (ALT or AST; postbaseline): (21.1) %
ALT or AST ≥1.5 × ULN, n/N1 (%) (ALT or AST; postbaseline): (8.7) %
ALT or AST ≥2 × ULN, n/N1 (%) (ALT or AST; postbaseline): (4.9) %
ALT or AST ≥3 × ULN, n/N1 (%) (ALT or AST; postbaseline): 2.4%
ALT or AST ≥5 × ULN, n/N1 (%) (ALT or AST; postbaseline): (1.3) %
ALT or AST ≥10 × ULN, n/N1 (%) (ALT or AST; postbaseline): (0.6) %
ALT or AST ≥20 × ULN, n/N1 (%) (ALT or AST; postbaseline): (0.0) %
ALT or AST ≥3 × ULN, n/N1 (%) (ALT or AST; postbaseline, listed as Atogepant): (2.4) %
HIT-6 total score, LS mean change (95% confidence interval) ([1]; week 4): −7.63
proportion of HIT-6 responders (≥5 points from baseline) ([1]; week 4): 59.92%
HIT-6 total score, LS mean change (95% confidence interval) ([1]; week 52): −12.10
proportion of HIT-6 responders (≥5 points from baseline) ([1]; week 52): 80.77%
Change from Baseline in HIT-6 Total Score, LS Mean Δ from baseline ([1]; Week 4): −7.63
HIT-6 Total Score Responder Rates, % Responder ([1]; Week 4): 59.92%
Change from Baseline in HIT-6 Total Score, LS Mean Δ from baseline ([1]; Week 8): −9.14
HIT-6 Total Score Responder Rates, % Responder ([1]; Week 8): 66.60%
Change from Baseline in HIT-6 Total Score, LS Mean Δ from baseline ([1]; Week 12): −6.60
HIT-6 Total Score Responder Rates, % Responder ([1]; Week 12): 69.21%
Change from Baseline in HIT-6 Total Score, LS Mean Δ from baseline ([1]; Week 16): −10.15
HIT-6 Total Score Responder Rates, % Responder ([1]; Week 16): 71.65%
Change from Baseline in HIT-6 Total Score, LS Mean Δ from baseline ([1]; Week 20): −10.56
HIT-6 Total Score Responder Rates, % Responder ([1]; Week 20): 73.98%
Change from Baseline in HIT-6 Total Score, LS Mean Δ from baseline ([1]; Week 24): −10.55
HIT-6 Total Score Responder Rates, % Responder ([1]; Week 24): 74.00%
Change from Baseline in HIT-6 Total Score, LS Mean Δ from baseline ([1]; Week 28): −10.99
HIT-6 Total Score Responder Rates, % Responder ([1]; Week 28): 76.56%
Change from Baseline in HIT-6 Total Score, LS Mean Δ from baseline ([1]; Week 32): −11.15
HIT-6 Total Score Responder Rates, % Responder ([1]; Week 32): 77.89%
Change from Baseline in HIT-6 Total Score, LS Mean Δ from baseline ([1]; Week 36): −11.29
HIT-6 Total Score Responder Rates, % Responder ([1]; Week 36): 75.62%
Change from Baseline in HIT-6 Total Score, LS Mean Δ from baseline ([1]; Week 40): −11.76
HIT-6 Total Score Responder Rates, % Responder ([1]; Week 40): 80.71%
Change from Baseline in HIT-6 Total Score, LS Mean Δ from baseline ([1]; Week 44): −11.46
HIT-6 Total Score Responder Rates, % Responder ([1]; Week 44): 78.39%
Change from Baseline in HIT-6 Total Score, LS Mean Δ from baseline ([1]; Week 48): −11.86
HIT-6 Total Score Responder Rates, % Responder ([1]; Week 48): 80.11%
Change from Baseline in HIT-6 Total Score, LS Mean Δ from baseline ([1]; Week 52): −12.10
HIT-6 Total Score Responder Rates, % Responder ([1]; Week 52): 80.77%
time to maximum plasma concentrations [2]: ≤ 2 h
half-life ([2]; plasma, po): ~11 h
Death, n (%) ([3]; 52-week open-label, atogepant 60 mg QD or standard of care, safety population): (0.4) %
deaths reported (considered not related to atogepant) ([3]; atogepant 60 mg QD): Two
